Laboratory results taken from patent US20120142705A1, “ISATIN AND OXINDOLE COMPOUNDS” (priority 2010, published 2012).

What follows are molecules tested against T1, Recombinant human liver GK1 (GST-GK) (Homo sapiens, UniProt P35557) (assay: In vitro glucokinase activity, G6PDH-coupled spectrophotometric assay). Conditions: 5 mM D-glucose, 30° C., pH 7.1.
T1 construct: made in house; host or cells: E. coli
T1 sequence (P35557 1-466 isoform P35557-2): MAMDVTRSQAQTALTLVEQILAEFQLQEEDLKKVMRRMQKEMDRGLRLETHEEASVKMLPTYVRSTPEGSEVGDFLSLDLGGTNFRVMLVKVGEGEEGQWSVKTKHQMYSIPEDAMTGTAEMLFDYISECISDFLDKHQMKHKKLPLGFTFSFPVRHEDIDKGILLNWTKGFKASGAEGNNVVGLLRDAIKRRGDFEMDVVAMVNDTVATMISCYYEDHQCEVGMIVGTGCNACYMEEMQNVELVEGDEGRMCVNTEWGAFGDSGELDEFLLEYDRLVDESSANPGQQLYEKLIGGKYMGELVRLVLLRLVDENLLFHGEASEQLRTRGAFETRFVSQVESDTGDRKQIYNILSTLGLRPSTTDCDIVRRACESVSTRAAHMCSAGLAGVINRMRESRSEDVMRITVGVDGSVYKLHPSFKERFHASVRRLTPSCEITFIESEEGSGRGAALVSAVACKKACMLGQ
Format: biochemical
Outline: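 GST-fused human liver GK1 from E. coli, run at 30° C. in pH 7.1 HEPES with 5 mM glucose, 1 mM ATP and 10% DMSO, coupled via G6PDH to NADH. OD340 rate measured after enzyme start; SC1.5 is the activator concentration raising activity 50% over DMSO control.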

SMILES	SC1.5 (concentration of activator that produced a 50% increase in the activity of GK) [µM]
CC(C)CC(C(=O)Nc1cnccn1)N1C(=O)Cc2cc(OC(F)(F)F)ccc21 (stereo not shown) [Example 44, 4-Methyl-2-(2-oxo-5-trifluoromethoxy-2,3-dihydro-indol-1-yl)-pentanoic acid pyrazin-2-ylamide]	3.67
CC(C)CC(C(=O)Nc1ccccn1)N1C(=O)Cc2c(Cl)cccc21 (stereo not shown) [Example 26, 2-(4-Chloro-2-oxo-2,3-dihydro-indol-1-yl)-4-methyl-pentanoic acid pyridin-2-ylamide]	6.77
O=C(Nc1ccccn1)C(CC1CCCC1)N1C(=O)Cc2ccccc21 (stereo not shown) [Example 8, 3-Cyclopentyl-2-(2-oxo-2,3-dihydro-indol-1-yl)-N-pyridin-2-yl-propionamide]	4.93
COc1ccc2c(c1)CC(=O)N2C(CC1CCCC1)C(=O)Nc1cnccn1 (stereo not shown) [Example 52, 3-Cyclopentyl-2-(5-methoxy-2-oxo-2,3-dihydro-indol-1-yl)-N-pyrazin-2-yl-propionamide]	4.76
Cc1ccc2c(c1)CC(=O)N2C(CC1CCCC1)C(=O)Nc1ccn(C)n1 (stereo not shown) [Example 81, 3-Cyclopentyl-2-(5-methyl-2-oxo-2,3-dihydro-indol-1-yl)-N-(1-methyl-1H-pyrazol-3-yl)-propionamide]	11.29
COc1ccc2c(c1)C(=O)C(=O)N2C(CC1CCCC1)C(=O)Nc1cnccn1 (stereo not shown) [Example 45, 3-Cyclopentyl-2-(5-methoxy-2,3-dioxo-2,3-dihydro-indol-1-yl)-N-pyrazin-2-yl-propionamide]	12.29
Cc1ccc2c(c1)CC(=O)N2C(CC1CCCC1)C(=O)Nc1cnccn1 (stereo not shown) [Example 83, 3-Cyclopentyl-2-(5-methyl-2-oxo-2,3-dihydro-indol-1-yl)-N-pyrazin-2-yl-propionamide]	4.47
CC(C)CC(C(=O)Nc1ccccn1)N1C(=O)C(=O)c2cc(Cl)ccc21 (stereo not shown) [Example 102, 2-(5-Chloro-2,3-dioxo-2,3-dihydro-indol-1-yl)-4-methyl-pentanoic acid pyridin-2-ylamide]	16.89
Cn1ccc(NC(=O)C(CC2CCCC2)N2C(=O)Cc3ccc(F)cc32)n1 (stereo not shown) [Example 126, 3-Cyclopentyl-2-(6-fluoro-2-oxo-2,3-dihydro-indol-1-yl)-N-(1-methyl-1H-pyrazol-3-yl)-propionamide]	1.86
Cn1ccc(NC(=O)C(CC2CCCC2)N2C(=O)Cc3cc(OC(F)(F)F)ccc32)n1 (stereo not shown) [Example 34, 3-Cyclopentyl-N-(1-methyl-1H-pyrazol-3-yl)-2-(2-oxo-5-trifluoromethoxy-2,3-dihydro-indol-1-yl)-propionamide]	1.07
CC(C)CC(C(=O)Nc1ccccn1)N1C(=O)C(=O)c2c(Cl)cccc21 (stereo not shown) [Example 18, 2-(4-Chloro-2,3-dioxo-2,3-dihydro-indol-1-yl)-4-methyl-pentanoic acid pyridin-2-ylamide]	13.42
O=C(Nc1cnccn1)C(CC1CCCC1)N1C(=O)Cc2ccc(Br)cc21 (stereo not shown) [Example 133, 2-(6-Bromo-2-oxo-2,3-dihydro-indol-1-yl)-3-cyclopentyl-N-pyrazin-2-yl-propionamide]	0.34
CS(=O)(=O)c1ccc2c(c1)N(C(CC1CCCC1)C(=O)Nc1nccs1)C(=O)C2 (stereo not shown) [Example 138, 3-Cyclopentyl-2-(6-methanesulfonyl-2-oxo-2,3-dihydro-indol-1-yl)-N-thiazol-2-yl-propionamide]	2.94
Cn1ccc(NC(=O)C(CC2CCCC2)N2C(=O)Cc3cc(Br)ccc32)n1 (stereo not shown) [Example 65, 2-(5-Bromo-2-oxo-2,3-dihydro-indol-1-yl)-3-cyclopentyl-N-(1-methyl-1H-pyrazol-3-yl)-propionamide]	2.71
COc1ccc2c(c1)C(=O)C(=O)N2C(CC1CCCC1)C(=O)Nc1ccccn1 (stereo not shown) [Example 46, 3-Cyclopentyl-2-(5-methoxy-2,3-dioxo-2,3-dihydro-indol-1-yl)-N-pyridin-2-yl-propionamide]	2.32
O=C1C(=O)N(C(CC2CCCC2)C(=O)Nc2cnccn2)c2cc(Cl)ccc21 (stereo not shown) [Example 120, 2-(6-Chloro-2,3-dioxo-2,3-dihydro-indol-1-yl)-3-cyclopentyl-N-pyrazin-2-yl-propionamide]	0.9
O=C(Nc1cnccn1)C(CC1CCCC1)N1C(=O)Cc2cc(OC(F)(F)F)ccc21 (stereo not shown) [Example 36, 3-Cyclopentyl-2-(2-oxo-5-trifluoromethoxy-2,3-dihydro-indol-1-yl)-N-pyrazin-2-yl-propionamide]	0.63
CC(C)CC(C(=O)Nc1ccccn1)N1C(=O)C(=O)c2cc(Br)ccc21 (stereo not shown) [Example 69, 2-(5-Bromo-2,3-dioxo-2,3-dihydro-indol-1-yl)-4-methyl-pentanoic acid pyridin-2-ylamide]	7.43
CC(C)CC(C(=O)Nc1ccn(C)n1)N1C(=O)C(=O)c2ccc(Cl)cc21 (stereo not shown) [Example 111, 2-(6-Chloro-2,3-dioxo-2,3-dihydro-indol-1-yl)-4-methyl-pentanoic acid (1-methyl-1H-pyrazol-3-yl)-amide]	15.93
COc1ccc2c(c1)CC(=O)N2C(CC(C)C)C(=O)Nc1nccs1 (stereo not shown) [Example 56, 2-(5-Methoxy-2-oxo-2,3-dihydro-indol-1-yl)-4-methyl-pentanoic acid thiazol-2-ylamide]	22.75

Same assay, conditions: @ 30 uM; 5 mM D-glucose, 30° C.

SMILES	fold induction at 30 µM
CC(C)CC(C(=O)Nc1nccs1)N1C(=O)C(=O)c2cc(Cl)ccc21 (stereo not shown) [Example 101, 2-(5-Chloro-2,3-dioxo-2,3-dihydro-indol-1-yl)-4-methyl-pentanoic acid thiazol-2-ylamide]	1.4
CC(C)CC(C(=O)Nc1ccn(C)n1)N1C(=O)C(=O)c2cc(Br)ccc21 (stereo not shown) [Example 70, 2-(5-Bromo-2,3-dioxo-2,3-dihydro-indol-1-yl)-4-methyl-pentanoic acid (1-methyl-1H-pyrazol-3-yl)-amide]	1.32
Cc1ccc2c(c1)C(=O)C(=O)N2C(CC(C)C)C(=O)Nc1ccn(C)n1 (stereo not shown) [Example 86, 4-Methyl-2-(5-methyl-2,3-dioxo-2,3-dihydro-indol-1-yl)-pentanoic acid (1-methyl-1H-pyrazol-3-yl)-amide]	1.44
CC(C)CC(C(=O)Nc1cnccn1)N1C(=O)C(=O)c2cc(Cl)ccc21 (stereo not shown) [Example 103, 2-(5-Chloro-2,3-dioxo-2,3-dihydro-indol-1-yl)-4-methyl-pentanoic acid pyrazin-2-ylamide]	1.3
Cn1ccc(NC(=O)C(CC2CCCC2)N2C(=O)C(=O)c3ccccc32)n1 (stereo not shown) [Example 5, 3-Cyclopentyl-2-(2,3-dioxo-2,3-dihydro-indol-1-yl)-N-(1-methyl-1H-pyrazol-3-yl)-propionamide]	1.47
